# Publication PMC12584665, “In vitro and in vivo efficacy of vancomycin against Elizabethkingia species and the impact of increased vancomycin MICs” (Microbiology Spectrum, 2025)
# Where two headings read alike, the source gives them in different places.
# What was measured:
# [1] = test system: Elizabethkingia anophelis; assay: Murine neutropenic thigh infection model; format: in vivo, C57BL/6J mice; conditions: 50 mg/kg intraperitoneal, 2 h and 14 h after inoculation
# Procedure: (§1) In vivo efficacy was assessed by wax moth (Galleria mellonella), murine pneumonia, and murine thigh infection models following the protocols of our previous study ([2]). The Animal Ethics Committee of Taiwan’s National Health Research Institutes approved the murine pneumonia and thigh infection models.
# For the thigh infection model, seven-week-old C57BL/6J mice were rendered neutropenic by intraperitoneal injections of cyclophosphamide (Cytoxan; Bristol-Myers Squibb, Princeton, NJ, USA) 4 days (150 mg/kg) and 1 day (100 mg/kg) before bacterial inoculation. A 30 µL aliquot containing the E. anophelis (10^7 cfu) was injected into each of the two rear thighs. Vancomycin (25 mg/kg or 100 mg/kg, subcutaneous) or teicoplanin (50 mg/kg, intraperitoneal) was administered 2 h and 14 h after inoculation. Mice were sacrificed 24 h post-inoculation, and homogenized thigh tissue was plated in serial 10-fold dilutions on brain-heart infusion agar to determine bacterial counts. Each mouse, not each thigh, was considered an individual data point.
# [2] = test system: Elizabethkingia anophelis; assay: Murine pneumonia model; format: in vivo, C57BL/6J mice; conditions: 50 mg/kg intraperitoneal twice daily
# Procedure: as §1
# For the pneumonia model, a bacterial suspension was mixed with 5% mucin from porcine stomach (type 3; Sigma-Aldrich, Saint Louis, USA). Seven-week-old C57BL/6J mice were anesthetized with isoflurane for 10 min. For each strain, the inoculum corresponded to the lowest dose that caused >80% mortality in preliminary testing. This inoculum (10⁶–10⁸ cfu, depending on strain) was delivered intratracheally to induce pneumonia. Two hours thereafter, mice received either high or human-equivalent doses of subcutaneous vancomycin (100 mg/kg or 25 mg/kg, respectively) or intraperitoneal teicoplanin (50 mg/kg) ([17]) twice daily for 3 days. Each group contained eight mice, and survival was monitored for 3 days.
# [3] = Serum drug levels in mice (LC-MS/MS); format: in vivo; conditions: single dose 50 mg/kg intraperitoneal teicoplanin vs 25 or 100 mg/kg subcutaneous vancomycin
# Procedure: Fifty microliters of aliquots of murine serum was mixed with 100 µL acetonitrile. The mixture was vortexed and then centrifuged at 15,000 × g for 20 min in a Beckman Coulter Microfuge 22R Centrifuge at room temperature. The supernatant was transferred to a clean tube, and then 15 µL of the supernatant was injected onto LC-MS/MS. The chromatographic system consisted of an Agilent 1200 series LC system and an Agilent ZORBAX Eclipse XDB-C8 column (5 µm, 3.0 × 150 mm) interfaced to an MDS Sciex API3000 tandem mass spectrometer. The MS/MS ion transitions monitored were m/z 725/144 for vancomycin. A gradient HPLC method was employed for separation. Mobile phase A consisted of 10 mM ammonium acetate aqueous solution containing 0.1% formic acid and mobile phase B consisted of acetonitrile. The gradient profile was as follows (min/%B): 0.0–0.9/5, 1.0–2.0/50, 2.1–3.7/95, 3.8–5.0/5. The flow rate was set at 1.5 mL/min.
# [4] = test system: Elizabethkingia anophelis; assay: Galleria mellonella (wax moth) infection survival model; format: in vivo; conditions: 72 h
# Procedure: as §1
# G. mellonella was reared at the National Health Research Institutes of Taiwan. Caterpillars in the final instar larval stage (weight ca. 250 mg) were used. […] A 10 µL aliquot of E. anophelis at the predetermined lethal dose was injected into the hemocoel of each caterpillar via the last left proleg. Antibiotics were administered once into another proleg at the indicated time points; vancomycin (5, 10, or 20 mg/kg, 2 h post-inoculation); other glycopeptides (teicoplanin, 10 mg/kg, 30 min post-inoculation; dalbavancin, 8.75 mg/kg, 2 h post-inoculation; oritavancin, 15 mg/kg, 1 h post-inoculation) ([11][–][13]); or daptomycin (10 mg/kg, 2 h post-inoculation) ([13]). Each treatment group contained 6–8 caterpillars. A control group injected with sterile PBS was included to monitor for trauma-related mortality. Caterpillars were incubated at 37°C, and survival was recorded twice daily for 72 h.
# [5] = test system: Elizabethkingia anophelis; assay: Broth microdilution (BMD) MIC; format: cell-based
# From the text: Eighteen E. anophelis clinical isolates from the nationwide surveillance program (Taiwan Surveillance of Antimicrobial Resistance) were well characterized in our previous study ([7]) and were selected for susceptibility testing and minimum bactericidal concentration (MBC) assays. Among them, five isolates with different clonality (underlined strains in Fig. S1) were selected for the time-kill assays and in vivo experiments.
# Broth microdilution, disc diffusion, Etest, and agar dilution assays were conducted following CLSI guidelines to determine vancomycin MICs ([8]). […] Criteria for Staphylococcus spp. were not adopted due to the lack of a zone diameter breakpoint. MBCs were determined following CLSI guidelines ([8]).
# [6] = E. anophelis used in the G. mellonella assays of Fig. S4, isolate and method not given
# [7] = Elizabethkingia anophelis, E. anophelis clinical isolate 2008N05-106, read-out: MIC, BMD
# [8] = Elizabethkingia anophelis, E. anophelis clinical isolate 2008S01-229, read-out: MIC, BMD
# [9] = Elizabethkingia anophelis, E. anophelis clinical isolate 2014C06-157, read-out: MIC, BMD
# [10] = Elizabethkingia anophelis, E. anophelis clinical isolate 2016N17-576, read-out: MIC, BMD
# [11] = Elizabethkingia anophelis, E. anophelis clinical isolate 2018C04-213, read-out: MIC, BMD
# [12] = Elizabethkingia anophelis, E. anophelis clinical isolate 2018C04-224, read-out: MIC, BMD
# [13] = Elizabethkingia anophelis, E. anophelis clinical isolate 2018C07-210, read-out: MIC, BMD
# [14] = Elizabethkingia anophelis, E. anophelis clinical isolate 2018C07-234, read-out: MIC, BMD
# [15] = Elizabethkingia anophelis, E. anophelis clinical isolate 2018C08-127, read-out: MIC, BMD
# [16] = Elizabethkingia anophelis, E. anophelis clinical isolate 2018E03-151, read-out: MIC, BMD
# [17] = Elizabethkingia anophelis, E. anophelis clinical isolate 2018E04-135, read-out: MIC, BMD
# [18] = Elizabethkingia anophelis, E. anophelis clinical isolate 2018N16-057, read-out: MIC, BMD
# [19] = Elizabethkingia anophelis, E. anophelis clinical isolate 2018N17-036, read-out: MIC, BMD
# [20] = Elizabethkingia anophelis, E. anophelis clinical isolate 2018N17-073, read-out: MIC, BMD
# [21] = Elizabethkingia anophelis, E. anophelis clinical isolate 2018N17-153, read-out: MIC, BMD
# [22] = Elizabethkingia anophelis, E. anophelis clinical isolate 2018N21-226, read-out: MIC, BMD
# [23] = Elizabethkingia anophelis, E. anophelis clinical isolate 2018S09-023, read-out: MIC, BMD
# [24] = Elizabethkingia anophelis, E. anophelis clinical isolate 2018S11-172, read-out: MIC, BMD
compound,measurement,setting,value
Teicoplanin,reduction of bacterial loads in thigh,[1],little effect
same,survival of infected mice,[2],little effect
same,concentration in murine serum relative to vancomycin,[3],much higher than that of vancomycin
same,survival of infected wax moths,"[4]; 10 mg/kg once, 30 min post-inoculation",no survival benefit
same,"MIC, BMD",[5]; E. anophelis clinical isolate 2008N05-106,128 µg/mL
same,"MIC, BMD",[5]; E. anophelis clinical isolate 2008S01-229,128 µg/mL
same,"MIC, BMD",[5]; E. anophelis clinical isolate 2014C06-157,128 µg/mL
same,"MIC, BMD",[5]; E. anophelis clinical isolate 2016N17-576,128 µg/mL
same,"MIC, BMD",[5]; E. anophelis clinical isolate 2018C04-213,128 µg/mL
same,"MIC, BMD",[5]; E. anophelis clinical isolate 2018C04-224,128 µg/mL
same,"MIC, BMD",[5]; E. anophelis clinical isolate 2018C07-210,256 µg/mL
same,"MIC, BMD",[5]; E. anophelis clinical isolate 2018C07-234,256 µg/mL
same,"MIC, BMD",[5]; E. anophelis clinical isolate 2018C08-127,128 µg/mL
same,"MIC, BMD",[5]; E. anophelis clinical isolate 2018E03-151,128 µg/mL
same,"MIC, BMD",[5]; E. anophelis clinical isolate 2018E04-135,64 µg/mL
same,"MIC, BMD",[5]; E. anophelis clinical isolate 2018N16-057,128 µg/mL
same,"MIC, BMD",[5]; E. anophelis clinical isolate 2018N17-036,128 µg/mL
same,"MIC, BMD",[5]; E. anophelis clinical isolate 2018N17-073,128 µg/mL
same,"MIC, BMD",[5]; E. anophelis clinical isolate 2018N17-153,128 µg/mL
same,"MIC, BMD",[5]; E. anophelis clinical isolate 2018N21-226,64 µg/mL
same,"MIC, BMD",[5]; E. anophelis clinical isolate 2018S09-023,64 µg/mL
same,"MIC, BMD",[5]; E. anophelis clinical isolate 2018S11-172,64 µg/mL
same,MICs,[5]; [6],128 mg/L
CN[C@H]1C(=O)N[C@@H]2Cc3ccc(cc3)Oc3cc4cc(c3O[C@@H]3O[C@H](C(=O)O)[C@@H](O)[C@H](O)[C@H]3NC(=O)CCCCCCCCC(C)C)Oc3ccc(cc3Cl)[C@@H](O)[C@@H]3NC(=O)[C@H](NC(=O)[C@@H]4NC(=O)[C@@H](NC2=O)c2cc(cc(O)c2Cl)Oc2cc1ccc2O)c1ccc(O)c(c1)-c1c(O[C@H]2O[C@H](CO)[C@@H](O)[C@H](O)[C@@H]2O)cc(O)cc1[C@@H](C(=O)NCCCN(C)C)NC3=O [dalbavancin],survival of infected wax moths,"[4]; 8.75 mg/kg once, 2 h post-inoculation",no survival benefit
same,MICs,[5]; [6],64 mg/L
CN[C@H](CC(C)C)C(=O)N[C@H]1C(=O)N[C@@H](CC(N)=O)C(=O)N[C@H]2C(=O)N[C@H]3C(=O)N[C@H](C(=O)N[C@H](C(=O)O)c4cc(O)cc(O)c4-c4cc3ccc4O)[C@H](O[C@H]3C[C@](C)(N)[C@@H](O)[C@H](C)O3)c3ccc(c(Cl)c3)Oc3cc2cc(c3O[C@@H]2O[C@H](CO)[C@@H](O)[C@H](O)[C@H]2O[C@H]2C[C@](C)(NCc3ccc(-c4ccc(Cl)cc4)cc3)[C@@H](O)[C@H](C)O2)Oc2ccc(cc2Cl)[C@H]1O [oritavancin],survival of infected wax moths,"[4]; 15 mg/kg once, 1 h post-inoculation",no survival benefit
same,MIC,"[5]; read-out: MICs, E. anophelis used in the G. mellonella assays of Fig. S4, isolate and method not given",64 µg/mL
C[C@H]1COc2c(N3CCN(C)CC3)c(F)cc3c(=O)c(C(=O)O)cn1c23 [Levofloxacin],MIC,[5]; [7],> 8 µg/mL
same,MIC,[5]; [8],≤ 1 µg/mL
same,MIC,[5]; [9],> 8 µg/mL
same,MIC,[5]; [10],> 8 µg/mL
same,MIC,[5]; [11],> 8 µg/mL
same,MIC,[5]; [12],> 8 µg/mL
same,MIC,[5]; [13],> 8 µg/mL
same,MIC,[5]; [14],> 8 µg/mL
same,MIC,[5]; [15],2 µg/mL
same,MIC,[5]; [16],2 µg/mL
same,MIC,[5]; [17],≤ 1 µg/mL
same,MIC,[5]; [18],≤ 1 µg/mL
same,MIC,[5]; [19],> 8 µg/mL
same,MIC,[5]; [20],> 8 µg/mL
same,MIC,[5]; [21],> 8 µg/mL
same,MIC,[5]; [22],≤ 1 µg/mL
same,MIC,[5]; [23],≤ 1 µg/mL
same,MIC,[5]; [24],2 µg/mL
CCCCCCCCCC(=O)N[C@@H](Cc1c[nH]c2ccccc12)C(=O)N[C@H](CC(N)=O)C(=O)N[C@@H](CC(=O)O)C(=O)N[C@@H]1C(=O)NCC(=O)N[C@@H](CCCN)C(=O)N[C@@H](CC(=O)O)C(=O)N[C@H](C)C(=O)N[C@@H](CC(=O)O)C(=O)NCC(=O)N[C@H](CO)C(=O)N[C@@H]([C@H](C)CC(=O)O)C(=O)N[C@@H](CC(=O)c2ccccc2N)C(=O)O[C@@H]1C [daptomycin],survival of infected wax moths,"[4]; 10 mg/kg once, 2 h post-inoculation",no survival benefit
same,MIC,"[5]; E. anophelis used in the G. mellonella assays of Fig. S4, isolate and method not given, read-out: MICs",128 µg/mL
CN(C)c1ccc(O)c2c1C[C@H]1C[C@H]3[C@H](N(C)C)C(O)=C(C(N)=O)C(=O)[C@@]3(O)C(O)=C1C2=O [Minocycline],MIC,[5]; [7],≤ 2 µg/mL
same,MIC,[5]; [8],≤ 2 µg/mL
same,MIC,[5]; [9],≤ 2 µg/mL
same,MIC,[5]; [10],≤ 2 µg/mL
same,MIC,[5]; [11],≤ 2 µg/mL
same,MIC,[5]; [12],≤ 2 µg/mL
same,MIC,[5]; [13],≤ 2 µg/mL
same,MIC,[5]; [14],≤ 2 µg/mL
same,MIC,[5]; [15],≤ 2 µg/mL
same,MIC,[5]; [16],≤ 2 µg/mL
same,MIC,[5]; [17],≤ 2 µg/mL
same,MIC,[5]; [18],≤ 2 µg/mL
same,MIC,[5]; [19],≤ 2 µg/mL
same,MIC,[5]; [20],≤ 2 µg/mL
same,MIC,[5]; [21],≤ 2 µg/mL
same,MIC,[5]; [22],≤ 2 µg/mL
same,MIC,[5]; [23],≤ 2 µg/mL
same,MIC,[5]; [24],≤ 2 µg/mL
